Reference: ChEMBL document CHEMBL1134142, “Prodrugs of 3-amido bearing pseudomycin analogues: novel antifungal agents” (Bioorg Med Chem Lett, 2001)
Converted amounts (≈) assume the structure as drawn. Bridge positions count the residues as written; N and C are the ends. Square brackets hold non-standard residues; d marks the D form. Side chains are listed from the residue outwards. Peptide text beside a SMILES is read from it. * marks the point of attachment. Tetradecanoyl(3R-OH) = CCCCCCCCCCC[C@@H](O)CC(=O)*; Asp(3S-OH) = N[C@H](C(=O)O)[C@H](O)C(=O)O; Thr(4-Cl) = N[C@H](C(=O)O)[C@H](O)CCl; aThr = C[C@H](O)[C@H](N)C(=O)O; dDab = NCC[C@@H](N)C(=O)O; NHCH2CH2NMe2 = CN(C)CCN*; Dab = NCC[C@H](N)C(=O)O; Dhb = C/C=C(\N)C(=O)O; X1 = CCN(CC)CCN*; NHcPr = C1CC1N*

Key:
Cryptococcus neoformans [1] = test: Minimum inhibitory concentration against Cryptococcus neoformans.
Candida albicans = test: Minimum inhibitory concentration against Candida albicans.; format: functional
Aspergillus fumigatus = test: Minimum inhibitory concentration against Aspergillus fumigatus; format: functional
[2] = The compound was tested for toxicity in tail vein irritation model; No; conditions: mouse
Mus musculus [3] = test: Compound was evaluated in vivo for its effective dose against Murine candidiasis; format: functional
Mus musculus [4] = test: (§1) Compound was evaluated in vivo for its effective dose against cryptococosis; format: functional
Mus musculus [5] = organism: Mus musculus; test: Maximum tolerated dose against tail vein irritation determined by dose elevation study; format: functional
[6] = The compound was tested for toxicity in tail vein irritation model; Yes; conditions: mouse
Cryptococcus neoformans [7] = test: as §1; format: functional

SMILES	MIC (Cryptococcus neoformans [1]) [µg/mL]	MIC (Candida albicans) [µg/mL]	MIC (Aspergillus fumigatus) [µg/mL]	Toxicity [2]	ED50 (Mus musculus [3]) [mg/kg]	ED50 (Mus musculus [4]) [mg/kg]	Dose elevation (Mus musculus [5]) [mg/kg]	Toxicity [6]	ED50 (Cryptococcus neoformans [7]) [mg/kg]
C/C=C1\NC(=O)[C@H]([C@H](C)O)NC(=O)[C@H](CCNC(=O)OCOC(=O)C(C)C)NC(=O)[C@H](CCCCNC(=O)OCOC(=O)C(C)C)NC(=O)[C@H](CC(N)=O)NC(=O)[C@@H](CCNC(=O)OCOC(=O)C(C)C)NC(=O)[C@@H](NC(=O)C[C@H](O)CCCCCCCCCCC)COC(=O)[C@H]([C@H](O)CCl)NC(=O)[C@H]([C@H](O)C(=O)O)NC1=O	20 (≈ 12.2 µM)	20 (≈ 12.2 µM)	20 (≈ 12.2 µM)	Not toxic	–	–	–	–	–
C/C=C1\NC(=O)[C@H]([C@H](C)O)NC(=O)[C@H](CCNC(=O)OCOC(=O)C(C)C)NC(=O)[C@H](CCCCNC(=O)OCOC(=O)C(C)C)NC(=O)[C@H](CC(=O)NC(C)(C)CC)NC(=O)[C@@H](CCNC(=O)OCOC(=O)C(C)C)NC(=O)[C@@H](NC(=O)C[C@H](O)CCCCCCCCCCC)COC(=O)[C@H]([C@H](O)CCl)NC(=O)[C@H]([C@H](O)C(=O)O)NC1=O	20 (≈ 11.7 µM)	20 (≈ 11.7 µM)	20 (≈ 11.7 µM)	Not toxic	–	–	–	–	–
C/C=C1\NC(=O)[C@H]([C@H](C)O)NC(=O)[C@H](CCNC(=O)OCOC(=O)C(C)C)NC(=O)[C@H](CCCCNC(=O)OCOC(=O)C(C)C)NC(=O)[C@H](CC(=O)NCCN(CC)CC)NC(=O)[C@@H](CCNC(=O)OCOC(=O)C(C)C)NC(=O)[C@@H](NC(=O)C[C@H](O)CCCCCCCCCCC)COC(=O)[C@H]([C@H](O)CCl)NC(=O)[C@H]([C@H](O)C(=O)O)NC1=O	20 (≈ 11.5 µM)	20 (≈ 11.5 µM)	20 (≈ 11.5 µM)	Not toxic	–	–	–	–	–
C/C=C1\NC(=O)[C@H]([C@H](C)O)NC(=O)[C@H](CCNC(=O)OCOC(=O)C(C)(C)C)NC(=O)[C@H](CCCCNC(=O)OCOC(=O)C(C)(C)C)NC(=O)[C@H](CC(=O)NCC(=O)OC)NC(=O)[C@@H](CCNC(=O)OCOC(=O)C(C)(C)C)NC(=O)[C@@H](NC(=O)C[C@H](O)CCCCCCCCCCC)COC(=O)[C@H]([C@H](O)CCl)NC(=O)[C@H]([C@H](O)C(=O)O)NC1=O	–	–	–	Not toxic	< 5	> 5	125	–	–
C/C=C1\NC(=O)[C@H]([C@H](C)O)NC(=O)[C@H](CCNC(=O)OCOC(=O)C(C)C)NC(=O)[C@H](CCCCNC(=O)OCOC(=O)C(C)C)NC(=O)[C@H](CC(=O)NCC(=O)OC)NC(=O)[C@@H](CCNC(=O)OCOC(=O)C(C)C)NC(=O)[C@@H](NC(=O)C[C@H](O)CCCCCCCCCCC)COC(=O)[C@H]([C@H](O)CCl)NC(=O)[C@H]([C@H](O)C(=O)O)NC1=O	–	–	–	Not toxic	< 5	–	125	–	–
C/C=C1\NC(=O)[C@H]([C@H](C)O)NC(=O)[C@H](CCNC(=O)OCOC(=O)C(C)C)NC(=O)[C@H](CCCCNC(=O)OCOC(=O)C(C)C)NC(=O)[C@H](CC(=O)NCCN(C)C)NC(=O)[C@@H](CCNC(=O)OCOC(=O)C(C)C)NC(=O)[C@@H](NC(=O)C[C@H](O)CCCCCCCCCCC)COC(=O)[C@H]([C@H](O)CCl)NC(=O)[C@H]([C@H](O)C(=O)O)NC1=O	–	–	–	Not toxic	6.6	–	125	–	–
C/C=C1\NC(=O)[C@H]([C@H](C)O)NC(=O)[C@H](CCNC(=O)OCOC(=O)C(C)(C)C)NC(=O)[C@H](CCCCNC(=O)OCOC(=O)C(C)(C)C)NC(=O)[C@H](CC(=O)NCCN(C)C)NC(=O)[C@@H](CCNC(=O)OCOC(=O)C(C)(C)C)NC(=O)[C@@H](NC(=O)C[C@H](O)CCCCCCCCCCC)COC(=O)[C@H]([C@H](O)CCl)NC(=O)[C@H]([C@H](O)C(=O)O)NC1=O	–	–	–	Not toxic	< 5	0.44	–	–	–
C/C=C1\NC(=O)[C@H]([C@H](C)O)NC(=O)[C@H](CCNC(=O)OCOC(=O)C(C)C)NC(=O)[C@H](CCCCNC(=O)OCOC(=O)C(C)C)NC(=O)[C@H](CC(=O)NC2CC2)NC(=O)[C@@H](CCNC(=O)OCOC(=O)C(C)C)NC(=O)[C@@H](NC(=O)C[C@H](O)CCCCCCCCCCC)COC(=O)[C@H]([C@H](O)CCl)NC(=O)[C@H]([C@H](O)C(=O)O)NC1=O	–	–	–	Not toxic	< 5	0.56	125	–	–
C/C=C1\NC(=O)[C@H]([C@H](C)O)NC(=O)[C@H](CCN)NC(=O)[C@H](CCCCN)NC(=O)[C@H](CC(=O)NC(C)(C)CC)NC(=O)[C@@H](CCN)NC(=O)[C@@H](NC(=O)C[C@H](O)CCCCCCCCCCC)COC(=O)[C@H]([C@H](O)CCl)NC(=O)[C@H]([C@H](O)C(=O)O)NC1=O	< 0.01	0.312 (≈ 0.244 µM)	> 20	–	–	–	–	Active	–
C/C=C1\NC(=O)[C@H]([C@H](C)O)NC(=O)[C@H](CCNC(=O)OCOC(=O)C(C)(C)C)NC(=O)[C@H](CCCCNC(=O)OCOC(=O)C(C)(C)C)NC(=O)[C@H](CC(=O)NC2CC2)NC(=O)[C@@H](CCNC(=O)OCOC(=O)C(C)(C)C)NC(=O)[C@@H](NC(=O)C[C@H](O)CCCCCCCCCCC)COC(=O)[C@H]([C@H](O)CCl)NC(=O)[C@H]([C@H](O)C(=O)O)NC1=O	–	–	–	Not toxic	< 5	–	–	–	–
C/C=C1\NC(=O)[C@H]([C@H](C)O)NC(=O)[C@H](CCN)NC(=O)[C@H](CCCCN)NC(=O)[C@H](CC(=O)NCCN(C)C)NC(=O)[C@@H](CCN)NC(=O)[C@@H](NC(=O)C[C@H](O)CCCCCCCCCCC)COC(=O)[C@H]([C@H](O)CCl)NC(=O)[C@H]([C@H](O)C(=O)O)NC1=O ({Tetradecanoyl(3R-OH)}-S[dDab]D(NHCH2CH2NMe2)K[Dab][aThr][Dhb][Asp(3S-OH)][Thr(4-Cl)]; ester 1-C)	–	–	–	Not toxic	< 5	2.5	50	–	–
C/C=C1\NC(=O)[C@H]([C@H](C)O)NC(=O)[C@H](CCN)NC(=O)[C@H](CCCCN)NC(=O)[C@H](CC(=O)NC2CC2)NC(=O)[C@@H](CCN)NC(=O)[C@@H](NC(=O)C[C@H](O)CCCCCCCCCCC)COC(=O)[C@H]([C@H](O)CCl)NC(=O)[C@H]([C@H](O)C(=O)O)NC1=O ({Tetradecanoyl(3R-OH)}-S[dDab]D(NHcPr)K[Dab][aThr][Dhb][Asp(3S-OH)][Thr(4-Cl)]; ester 1-C)	–	–	–	Not toxic	< 5	2.9	50	–	–
C/C=C1\NC(=O)[C@H]([C@H](C)O)NC(=O)[C@H](CCN)NC(=O)[C@H](CCCCN)NC(=O)[C@H](CC(=O)NCCN(CC)CC)NC(=O)[C@@H](CCN)NC(=O)[C@@H](NC(=O)C[C@H](O)CCCCCCCCCCC)COC(=O)[C@H]([C@H](O)CCl)NC(=O)[C@H]([C@H](O)C(=O)O)NC1=O ({Tetradecanoyl(3R-OH)}-S[dDab]D(X1)K[Dab][aThr][Dhb][Asp(3S-OH)][Thr(4-Cl)]; ester 1-C)	< 0.01	10 (≈ 7.66 µM)	10 (≈ 7.66 µM)	–	–	–	–	Active	–
C/C=C1\NC(=O)[C@H]([C@H](C)O)NC(=O)[C@H](CCN)NC(=O)[C@H](CCCCN)NC(=O)[C@H](CC(=O)NCC(=O)OC)NC(=O)[C@@H](CCN)NC(=O)[C@@H](NC(=O)C[C@H](O)CCCCCCCCCCC)COC(=O)[C@H]([C@H](O)CCl)NC(=O)[C@H]([C@H](O)C(=O)O)NC1=O ({Tetradecanoyl(3R-OH)}-S[dDab]D([Gly-OMe])K[Dab][aThr][Dhb][Asp(3S-OH)][Thr(4-Cl)]; ester 1-C)	–	–	–	Not toxic	< 5	2.9	<50	–	–
C/C=C1\NC(=O)[C@H]([C@H](C)O)NC(=O)[C@H](CCN)NC(=O)[C@H](CCCCN)NC(=O)[C@H](CC(N)=O)NC(=O)[C@@H](CCN)NC(=O)[C@@H](NC(=O)C[C@H](O)CCCCCCCCCCC)COC(=O)[C@H]([C@H](O)CCl)NC(=O)[C@H]([C@H](O)C(=O)O)NC1=O ({Tetradecanoyl(3R-OH)}-S[dDab]NK[Dab][aThr][Dhb][Asp(3S-OH)][Thr(4-Cl)]; ester 1-C)	< 0.01	2.5 (≈ 2.07 µM)	10 (≈ 8.29 µM)	–	–	–	–	Active	–
C/C=C1\NC(=O)[C@H]([C@H](C)O)NC(=O)[C@H](CCN)NC(=O)[C@H](CCCCN)NC(=O)[C@H](CC(=O)O)NC(=O)[C@@H](CCN)NC(=O)[C@@H](NC(=O)C[C@H](O)CCCCCCCCCCC)COC(=O)[C@H]([C@H](O)CCl)NC(=O)[C@H]([C@H](O)C(=O)O)NC1=O [PSEUDOMYCIN B] ({Tetradecanoyl(3R-OH)}-S[dDab]DK[Dab][aThr][Dhb][Asp(3S-OH)][Thr(4-Cl)]; ester 1-C)	0.01 (≈ 0.00828 µM)	0.625 (≈ 0.517 µM)	20 (≈ 16.6 µM)	–	–	–	20	Active	1.8
